Measured values as given in patent US7446102B2, “Antibacterial amide macrocycles IV” (priority 2004, dated 2008).
Where a name gives a salt, the structure may show the parent alone. Read-outs that look alike come from different tables or passages of the source.

What was measured:
Format in all cases: cell-based
[1] = system: S. aureus RN4220Bi^R; test: MIC on biphenomycin-resistant S. aureus RN4220Bi^R; details: Staphylococcus aureus, read-out: MIC, selected colony (strain RN4220Bi^R)
Description: (§1) The S. aureus strain RN4220Bi^R is isolated in vitro. For this purpose, 100 μl portions of an S. aureus RN4220 cell suspension (about 1.2×10^8 cfu/ml) are plated out on an antibiotics-free agar plate (18.5 mM Na2HPO4, 5.7 mM KH2PO4, 9.3 mM NH4Cl, 2.8 mM MgSO4, 17.1 mM NaCl, 0.033 μg/ml thiamine hydrochloride, 1.2 μg/ml nicotinic acid, 0.003 μg/ml biotin, 1% glucose, 25 μg/ml of each proteinogenic amino acid with the addition of 0.4% BH broth and 1% agarose) and on an agar plate containing 2 μg/ml biphenomycin B (10×MIC), and incubated at 37° C. overnight. Whereas about 1×10^7 cells grow on the antibiotics-free plate, about 100 colonies grow on the antibiotics-containing plate, corresponding to a resistance rate of 1×10^−5. Some of the colonies grown on the antibiotics-containing plate are tested for the biphenomycin B MIC. One colony with an MIC of >50 μM is selected for further use, and the strain is referred to as RN4220Bi^R.

[2] = system: S. aureus T17; test: Determination of the minimum inhibitory concentration (MIC), biphenomycin-resistant S. aureus T17; details: Staphylococcus aureus
Description: Determination of the Minimum Inhibitory Concentration (MIC)
The minimum inhibitory concentration (MIC) is the minimum concentration of an antibiotic with which the growth of a test microbe is inhibited over 18-24 h. The inhibitor concentration can in these cases be determined by standard microbiological methods (see, for example, The National Committee for Clinical Laboratory Standards. Methods for dilution antimicrobial susceptibility tests for bacteria that grow aerobically; approved standard-fifth edition. NCCLS document M7-A5 [ISBN 1-56238-394-9]. NCCLS, 940 West Valley Road, Suite 1400, Wayne, Pa. 19087-1898 USA, 2000). The MIC of the compounds of the invention is determined in the liquid dilution test on the 96-well microtitre plate scale. The bacterial microbes are cultivated in a minimal medium (18.5 mM Na2HPO4, 5.7 mM KH2PO4, 9.3 mM NH4Cl, 2.8 mM MgSO4, 17.1 mM NaCl, 0.033 μg/ml thiamine hydrochloride, 1.2 μg/ml nicotinic acid, 0.003 μg/ml biotin, 1% glucose, 25 μg/ml of each proteinogenic amino acid with the exception of phenylalanine; [H.-P. Kroll; unpublished]) with the addition of 0.4% BH broth (test medium). In the case of Enterococcus facium L4001, heat-inactivated fetal calf serum (FCS; GibcoBRL, Germany) is added to the test medium in a final concentration of 10%. Overnight cultures of the test microbes are diluted to an OD578 of 0.001 (to 0.01 in the case of enterococci) in fresh test medium, and incubated 1:1 with dilutions of the test substances (1:2 dilution steps) in test medium (200 μl final volume). The cultures are incubated at 37° C. for 18-24 hours; enterococci in the presence of 5% CO2.
The lowest substance concentration in each case at which no visible bacterial growth occurred any more is defined as the MIC.
Alternative Method for Determining the Minimum Inhibitory Concentration (MIC)
The minimum inhibitory concentration (MIC) is the minimum concentration of an antibiotic with which the growth of a test microbe is inhibited over 18-24 h. The inhibitor concentration can in these cases be determined by standard microbiological methods with modified medium in an agar dilution test (see, for example, The National Committee for Clinical Laboratory Standards. Methods for dilution antimicrobial susceptibility tests for bacteria that grow aerobically; approved standard-fifth edition. NCCLS document M7-A5 [ISBN 1-56238-394-9]. NCCLS, 940 West Valley Road, Suite 1400, Wayne, Pa. 19087-1898 USA, 2000). The bacterial microbes are cultivated on 1.5% agar plates which contain 20% defibrinated horse blood. The test microbes, which are incubated overnight on Columbia blood agar plates (Becton-Dickinson), are diluted in PBS, adjusted to a microbe count of about […] and placed dropwise (1-3 μl) on test plates. The test substances comprise different dilutions of the test substances (1:2 dilution steps). The cultures are incubated at 37° C. in the presence of 5% CO2 for 18-24 hours.
The lowest substance concentration in each case at which no visible bacterial growth occurred any more is defined as the MIC and is reported in μg/ml.
The S. aureus strain T17 is isolated in vivo. CFW1 mice are infected intraperitoneally with 4×10^7 S. aureus 133 cells per mouse. 0.5 h after the infection, the animals are treated intravenously with 50 mg/kg biphenomycin B. The kidneys are removed from the surviving animals on day 3 after the infection. After homogenization of the organs, the homogenates are plated out as described for RN4220Bi^R on antibiotics-free and antibiotics-containing agar plates and incubated at 37° C. overnight. […] About 20 of these colonies are tested for the biphenomycin B MIC, and a colony with an MIC of >50 μM is selected for further cultivation, and the strain is referred to as T17.

[3] = system: S. aureus RN4220; test: Isolation of biphenomycin-resistant strain from S. aureus RN4220: resistance rate on biphenomycin B agar; details: S. aureus RN4220 on agar plate containing 2 μg/ml biphenomycin B (10×MIC), 37° C. overnight
Description: Isolation of the Biphenomycin-Resistant S. aureus Strains RN4220Bi^R and T17
as §1

NC[C@H](O)C[C@@H]1NC(=O)[C@@H](N)Cc2cc(ccc2O)-c2ccc(O)c(c2)C[C@@H](C(=O)O)NC1=O [Example 20A, 14(S)-Amino-11(S)-(3-amino-2(R)-hydroxypropyl)-5,17-dihydroxy-10,13-dioxo-9,12-diazatricyclo[14.3.1.1^2,6]henicosa-1(19),2,4,6(21),16(20),17-hexaene-8(S)-carboxylic acid dihydrochloride, reference compound]
MIC [1]: > 50 µM
MIC ([2]; biphenomycin-resistant strain, no visible bacterial growth, 18-24 h, 37° C., read-out: MIC S. aureus T17): > 32 mg/L
MIC ([2]; colony isolated from kidney of mice treated with 50 mg/kg biphenomycin B, read-out: MIC, selected colony (strain T17)): > 50 µM
resistance rate [3]: 1×10^−5
